Where a SMILES comes first, the peptide text is derived from it. Where no end group is shown, it is not given here. [ ]: non-standard residue; d: D form. The star is where a group is joined. Ac6c = NC1(C(=O)O)CCCCC1; Nle = CCCC[C@H](N)C(=O)O; X1 = CCCN1C(=O)CC(*)C1=O; Ac5c = NC1(C(=O)O)CCCC1; Aib = CC(C)(N)C(=O)O
Tests used:
[1] = Rat plasma half-life assay; format: in vitro ADME; set-up: half-life: dose or concentration left out as unconfirmed; details: for half-life at 0.1 mg/ml: rat plasma, 37° C., LC-MS, read-out: Rat Plasma T½ (converted)
[2] = Human plasma half-life assay; format: in vitro ADME
[3] = human plasma, 37° C., LC-MS, read-out: Human Plasma T½ (converted)

Compound	half-life at 0.1 mg/ml [1] [h]	half-life at 0.1 mg/ml [2, 3] [h]	half-life ([1]; rat, plasma, same experimental conditions as Table 2, read-out: rat plasma half-life (converted)) [h]	half-life at 0.1 mg/ml ([2]; human, plasma, same experimental conditions as Table 2, read-out: human plasma half-life (converted)) [h]
CCCC[C@H](NC(=O)[C@H](C)NC(=O)[C@@H](NC(=O)C1(NC(=O)[C@H](Cc2ccc(O)cc2)NC(=O)[C@H](CC(=O)O)NC(=O)[C@H](CO)NC(=O)[C@@H](NC(=O)[C@H](Cc2ccccc2)NC(=O)[C@@H](NC(=O)CNC(=O)[C@@H]2CCCN2C(=O)C(C)(C)NC(=O)[C@@H](N)Cc2ccc(O)cc2)[C@@H](C)O)[C@@H](C)CC)CCCC1)[C@@H](C)CC)C(=O)N[C@@H](CC(=O)O)C(=O)N[C@@H](CCCCN)C(=O)N[C@H](C(=O)N[C@@H](Cc1c[nH]cn1)C(=O)N[C@@H](CCC(N)=O)C(=O)N[C@@H](CCC(N)=O)C(=O)N[C@@H](CC(=O)O)C(=O)N[C@@H](Cc1ccccc1)C(=O)N[C@H](C(=O)N[C@@H](CC(N)=O)C(=O)N[C@@H](Cc1c[nH]c2ccccc12)C(=O)N[C@@H](CC(C)C)C(=O)N[C@@H](CC(C)C)C(=O)N[C@@H](C)C(=O)N[C@@H](CCC(N)=O)C(=O)N[C@@H](CCCCN)C(N)=O)C(C)C)[C@@H](C)CC [Example 111, (Aib^2, Pro^3, A5c^11, Nle^14)hGIP(1-30)-NH2]	> 54	> 54		
CC[C@H](C)[C@H](NC(=O)[C@H](CCCCN)NC(=O)[C@H](CC(=O)O)NC(=O)[C@H](CCSC)NC(=O)[C@H](C)NC(=O)[C@@H](NC(=O)C1(NC(=O)[C@H](Cc2ccc(O)cc2)NC(=O)[C@H](CC(=O)O)NC(=O)[C@H](CO)NC(=O)[C@@H](NC(=O)[C@H](Cc2ccccc2)NC(=O)[C@@H](NC(=O)CNC(=O)[C@@H]2CCCN2C(=O)C(C)(C)NC(=O)[C@@H](N)Cc2ccc(O)cc2)[C@@H](C)O)[C@@H](C)CC)CCCC1)[C@@H](C)CC)C(=O)N[C@@H](Cc1c[nH]cn1)C(=O)N[C@@H](CCC(N)=O)C(=O)N[C@@H](CCC(N)=O)C(=O)N[C@@H](CC(=O)O)C(=O)N[C@@H](Cc1ccccc1)C(=O)N[C@H](C(=O)N[C@@H](CC(N)=O)C(=O)N[C@@H](Cc1c[nH]c2ccccc12)C(=O)N[C@@H](CC(C)C)C(=O)N[C@@H](CC(C)C)C(=O)N[C@@H](C)C(=O)N[C@@H](CCC(N)=O)C(=O)N[C@@H](CCCCN)C(N)=O)C(C)C [Example 110, (Aib^2, Pro^3, A5c^11)hGIP(1-30)-NH2] (H-Y[Aib]PGTFISDY[Ac5c]IAMDKIHQQDFVNWLLAQK-NH2; N-terminus assumed)	25.8	13.7		
CC[C@H](C)[C@H](NC(=O)[C@H](CO)NC(=O)[C@H](Cc1ccc(O)cc1)NC(=O)[C@H](CC(=O)O)NC(=O)[C@H](CO)NC(=O)C1(NC(=O)[C@H](Cc2ccccc2)NC(=O)[C@@H](NC(=O)CNC(=O)[C@H](CCC(=O)O)NC(=O)C(C)(C)NC(=O)[C@@H](N)Cc2ccc(O)cc2)[C@@H](C)O)CCCCC1)C(=O)N[C@@H](C)C(=O)N[C@@H](CCSC)C(=O)N[C@@H](CC(=O)O)C(=O)N[C@@H](CCCCN)C(=O)N[C@H](C(=O)N[C@@H](Cc1c[nH]cn1)C(=O)N[C@@H](CCC(N)=O)C(=O)N[C@@H](CCC(N)=O)C(=O)N[C@@H](CC(=O)O)C(=O)N[C@@H](Cc1ccccc1)C(=O)N[C@H](C(=O)N[C@@H](CC(N)=O)C(=O)N[C@@H](Cc1c[nH]c2ccccc12)C(=O)N[C@@H](CC(C)C)C(=O)N[C@@H](CC(C)C)C(=O)N[C@@H](C)C(=O)N[C@@H](CCC(N)=O)C(=O)N[C@@H](CCCCN)C(N)=O)C(C)C)[C@@H](C)CC [Example 52, (Aib^2, A6c^7)hGIP(1-30)-NH2]	28.2	14		
YGEGTFISDY[Ac5c]IAMDKIHQQDFVNWLLAQKGKKNDWKHNITQH-OH [Example 117, (Gly^2, A5c^11, His^43)hGIP(1-43)-OH]	10.5	25.2		
CC[C@H](C)[C@H](NC(=O)[C@H](CO)NC(=O)[C@H](Cc1ccc(O)cc1)NC(=O)[C@H](CC(=O)O)NC(=O)[C@H](CO)NC(=O)C1(NC(=O)[C@H](Cc2ccccc2)NC(=O)[C@@H](NC(=O)CNC(=O)[C@H](CCC(=O)O)NC(=O)C(C)(C)NC(=O)[C@@H](N)Cc2ccc(O)cc2)[C@@H](C)O)CCCC1)C(=O)N[C@@H](C)C(=O)NC1(C(=O)N[C@@H](CC(=O)O)C(=O)N[C@@H](CCCCN)C(=O)N[C@H](C(=O)N[C@@H](Cc2c[nH]cn2)C(=O)N[C@@H](CCC(N)=O)C(=O)N[C@@H](CCC(N)=O)C(=O)N[C@@H](CC(=O)O)C(=O)N[C@@H](Cc2ccccc2)C(=O)N[C@H](C(=O)N[C@@H](CC(N)=O)C(=O)N[C@@H](Cc2c[nH]c3ccccc23)C(=O)N[C@@H](CC(C)C)C(=O)N[C@@H](CC(C)C)C(=O)N[C@@H](C)C(=O)N[C@@H](CCC(N)=O)C(=O)N[C@@H](CCCCN)C(N)=O)C(C)C)[C@@H](C)CC)CCCC1 [Example 35, (Aib^2, A5c^7, 14)hGIP(1-30)-NH2] (H-Y[Aib]EGTF[Ac5c]SDYSIA[Ac5c]DKIHQQDFVNWLLAQK-NH2; N-terminus assumed)	39.4	> 48		
Y[Aib]EGTFI[Aib]DYSIAMDKIHQQDFVNWLLAQKGKKNDWKHNITQ-OH [Example 9, (Aib^2, 8)hGIP(1-42)-OH]	9.2	> 48		
CCCC[C@H](NC(=O)C(C)(C)NC(=O)[C@@H](NC(=O)[C@H](CO)NC(=O)[C@H](Cc1ccc(O)cc1)NC(=O)[C@H](CC(=O)O)NC(=O)[C@H](CO)NC(=O)[C@@H](NC(=O)[C@H](Cc1ccccc1)NC(=O)[C@@H](NC(=O)CNC(=O)[C@@H]1C(O)CCN1C(=O)[C@H](C)NC(=O)[C@@H](N)Cc1ccc(O)cc1)[C@@H](C)O)[C@@H](C)CC)[C@@H](C)CC)C(=O)N[C@@H](CC(=O)O)C(=O)N[C@@H](CCCCN)C(=O)N[C@H](C(=O)N[C@@H](Cc1c[nH]cn1)C(=O)N[C@@H](CCC(N)=O)C(=O)N[C@@H](CCC(N)=O)C(=O)N[C@@H](CC(=O)O)C(=O)N[C@@H](Cc1ccccc1)C(=O)N[C@H](C(=O)N[C@@H](CC(N)=O)C(=O)N[C@@H](Cc1c[nH]c2ccccc12)C(=O)N[C@@H](CC(C)C)C(=O)N[C@@H](CC(C)C)C(=O)N[C@@H](C)C(=O)N[C@@H](CCC(N)=O)C(=O)N[C@@H](CCCCN)C(=O)NCC(=O)N[C@@H](CCCCN)C(=O)N[C@@H](CCCCN)C(=O)N[C@@H](CC(N)=O)C(=O)N[C@@H](CC(=O)O)C(=O)N[C@@H](Cc1c[nH]c2ccccc12)C(=O)N[C@@H](CCCCN)C(=O)N[C@@H](Cc1c[nH]cn1)C(=O)N[C@@H](CC(N)=O)C(=O)N[C@H](C(=O)N[C@H](C(=O)N[C@@H](CCC(N)=O)C(=O)O)[C@@H](C)O)[C@@H](C)CC)C(C)C)[C@@H](C)CC (stereo partly shown) [Example 70, (3Hyp^3, Aib^13, Nle^14)hGIP(1-42)-OH]	1.5	> 33		
CC[C@H](C)[C@H](NC(=O)[C@H](CCCCN)NC(=O)[C@H](CC(=O)O)NC(=O)[C@H](CCSC)NC(=O)[C@H](C)NC(=O)C(C)(C)NC(=O)[C@H](CO)NC(=O)[C@H](Cc1ccc(O)cc1)NC(=O)[C@H](CC(=O)O)NC(=O)[C@H](CO)NC(=O)[C@@H](NC(=O)[C@H](Cc1ccccc1)NC(=O)[C@@H](NC(=O)CNC(=O)[C@H](CCC(=O)O)NC(=O)C(C)(C)NC(=O)[C@@H](N)Cc1ccc(O)cc1)[C@@H](C)O)[C@@H](C)CC)C(=O)N[C@@H](Cc1c[nH]cn1)C(=O)N[C@@H](CCC(N)=O)C(=O)N[C@@H](CCC(N)=O)C(=O)N[C@@H](CC(=O)O)C(=O)N[C@@H](Cc1ccccc1)C(=O)N[C@H](C(=O)N[C@@H](CC(N)=O)C(=O)N[C@@H](Cc1c[nH]c2ccccc12)C(=O)N[C@@H](CC(C)C)C(=O)N[C@@H](CC(C)C)C(=O)N[C@@H](C)C(=O)N[C@@H](CCC(N)=O)C(=O)N[C@@H](CCCCN)C(N)=O)C(C)C [Example 20, (Aib^2, 12)hGIP(1-30)-NH2] (H-Y[Aib]EGTFISDYS[Aib]AMDKIHQQDFVNWLLAQK-NH2; N-terminus assumed)	42	25.4		
YAPGTFISDYSIA[Ac6c]DKIHQQDFVNWLLAQKGKKNDWKHNITQ-OH [Example 91, (Pro^3, A6c^14)hGIP(1-42)-OH]	1	13.4		
Y[Aib]EGTF[Ac6c]SDYSIAMDKIHQQDFVNWLLAQKGKKNDWKC(X1)NITQ-OH [Example 80, [Aib^2, A6c^7, Cys(Psu)^38]hGIP(1-42)-OH]	5.5	> 54		
CCCC[C@H](NC(=O)[C@H](C)NC(=O)[C@@H](NC(=O)[C@H](CO)NC(=O)[C@H](Cc1ccc(O)cc1)NC(=O)[C@H](CC(=O)O)NC(=O)[C@H](CO)NC(=O)C1(NC(=O)[C@H](Cc2ccccc2)NC(=O)[C@@H](NC(=O)CNC(=O)[C@H](CCC(=O)O)NC(=O)C(C)(C)NC(=O)[C@@H](N)Cc2ccc(O)cc2)[C@@H](C)O)CCCC1)[C@@H](C)CC)C(=O)N[C@@H](CC(=O)O)C(=O)N[C@@H](CCCCN)C(=O)N[C@H](C(=O)N[C@@H](Cc1c[nH]cn1)C(=O)N[C@@H](CCC(N)=O)C(=O)N[C@@H](CCC(N)=O)C(=O)N[C@@H](CC(=O)O)C(=O)N[C@@H](Cc1ccccc1)C(=O)N[C@H](C(=O)N[C@@H](CC(N)=O)C(=O)N[C@@H](Cc1c[nH]c2ccccc12)C(=O)N[C@@H](CC(C)C)C(=O)N[C@@H](CC(C)C)C(=O)N[C@@H](C)C(=O)N[C@@H](CCC(N)=O)C(=O)N[C@@H](CCCCN)C(N)=O)C(C)C)[C@@H](C)CC [Example 32, (Aib^2, A5c^7, Nle^14)hGIP(1-30)-NH2] (H-Y[Aib]EGTF[Ac5c]SDYSIA[Nle]DKIHQQDFVNWLLAQK-NH2; N-terminus assumed)	28.3	> 48		
H-YAPGTFISDYSIAMDKIHQQDFVNWLLAQKGKKNDWKHNITQ-OH [[Pro^3]hGIP(1-42)-OH, reference compound]			0.8	10.8
Y[Aib]EGTF[Ac6c]SDYSIAMDKIHQQDFVNWLLAQKGKKNDC(X1)KHNITQ-OH [Example 81, [Aib^2, A6c^7, Cys(Psu)^36]hGIP(1-42)-OH]	6.1	8.2		
Y[Aib]EGTFISDYS[Aib]AMDKIHQQDFVNWLLAQKGKKNDWKHNITQ-OH [Example 8, (Aib^2, 12)hGIP(1-42)-OH]	4.5	> 48		
